Laboratory results published in the supplement of paper PMC7661543.
± gives the standard deviation of the averaged measurements.

How the values were obtained:
Test in all cases: relative cell number vs DMSO control (72 h) (% of DMSO); higher = less growth inhibition (more cells)
Details in all cases: sgRNA knockout: sgNT
[1] = test system: HCC-38
Procedure: (§1)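 QMAP-Seq: a pool of 5 breast cancer cell lines (ZR-75-1, SKBR3, HCC-38, MDA-MB-231, BT-20), each carrying 12 doxycycline-inducible Cas9 sgRNA perturbations (11 knockouts plus non-targeting sgNT), was treated with compounds for 72 h at four 10-fold doses (10 nM-10 uM or 1 nM-1 uM range). Barcodes were amplified and sequenced, and cell number was interpolated from 293T spike-in standard curves. The result is expressed as % of the median of DMSO wells. Two biological replicates.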

[2] = test system: MDA-MB-231
Procedure: as §1

[3] = test system: ZR-75-1
Procedure: as §1

[4] = test system: SKBR3
Procedure: as §1

[5] = test system: BT-20
Procedure: as §1

| SMILES | relative cell number ([1]; 10 nM) | relative cell number ([1]; 100 nM) | relative cell number ([1]; 1000 nM) | relative cell number ([1]; 10000 nM) | relative cell number ([2]; 10 nM) | relative cell number ([2]; 100 nM) | relative cell number ([2]; 1000 nM) | relative cell number ([2]; 10000 nM) | relative cell number ([3]; 10 nM) | relative cell number ([3]; 100 nM) | relative cell number ([3]; 1000 nM) | relative cell number ([3]; 10000 nM) | relative cell number ([4]; 10 nM) | relative cell number ([4]; 100 nM) | relative cell number ([4]; 1000 nM) | relative cell number ([4]; 10000 nM) | relative cell number ([5]; 10 nM) | relative cell number ([5]; 100 nM) | relative cell number ([5]; 1000 nM) | relative cell number ([5]; 10000 nM) | relative cell number ([1]; 1 nM) | relative cell number ([2]; 1 nM) | relative cell number ([3]; 1 nM) | relative cell number ([4]; 1 nM) | relative cell number ([5]; 1 nM) |
| --- | --- | --- | --- | --- | --- | --- | --- | --- | --- | --- | --- | --- | --- | --- | --- | --- | --- | --- | --- | --- | --- | --- | --- | --- | --- |
| COc1cc(-n2c(=S)[nH]c3ccccc3c2=O)c(Cl)cc1Cl [Mdivi1] | 95.3 ± 11 | 93.4 ± 13 | 100 ± 10 | 83.1 ± 20 | 93.3 ± 18 | 84.9 ± 27 | 94.7 ± 11 | 50.1 ± 5.6 | 135 ± 44 | 77.9 ± 7.1 | 80.6 ± 2.8 | 41.5 ± 26 | 76 ± 18 | 104 ± 6.3 | 60 ± 1.5 | 44.2 ± 5.5 | 76.5 ± 8.6 | 98.8 ± 5.6 | 83.6 ± 2.9 | 84 ± 3.7 |  |  |  |  |  |
| COC(=O)Nc1nc2cc(C(=O)c3ccccc3)ccc2[nH]1 [Mebendazole] | 97.2 ± 18 | 83.2 ± 4.6 | 18.2 ± 7.5 | 19.9 ± 0.56 | 110 ± 10 | 79.4 ± 38 | 31.4 ± 12 | 26.5 ± 1.1 | 71.7 ± 21 | 64.7 ± 17 | 36.8 ± 8.2 | 14 ± 8.6 | 96.3 ± 10 | 59.8 ± 7.3 | 10.6 ± 9.4 | 7.21 ± 5.9 | 87.1 ± 7.3 | 78.9 ± 21 | 25 ± 7.1 | 20.6 ± 6.8 |  |  |  |  |  |
| CN(Cc1cnc2nc(N)nc(N)c2n1)c1ccc(C(=O)N[C@@H](CCC(=O)O)C(=O)O)cc1 [Methotrexate] | 105 ± 3.4 | 56 ± 1.1 | 41.2 ± 0.74 | 35.2 ± 0.52 | 97.5 ± 4.3 | 101 ± 17 | 91.2 ± 9.4 | 33.9 ± 8.7 | 89.6 ± 11 | 38.6 ± 12 | 40.6 ± 11 | 36.9 ± 8 | 116 ± 42 | 41 ± 1.5 | 22.1 ± 12 | 25.5 ± 6.4 | 98.43 ± 0.61 | 80.6 ± 3.4 | 51.2 ± 16 | 37.8 ± 12 |  |  |  |  |  |
| O=C1c2c(O)ccc(O)c2C(=O)c2c(NCCNCCO)ccc(NCCNCCO)c21 [Mitoxantrone] | 33.9 ± 2.3 | 30.46 ± 0.2 | 7.76 ± 0.68 | 7.21 ± 2.4 | 20.8 ± 7.3 | 17.3 ± 0.44 | 4.896 ± 0.008 | 6.65 ± 4.1 | 37.2 ± 4 | 22.3 ± 12 | 13.4 ± 1.2 | 7.6 ± 0.68 | 37.3 ± 21 | 22.3 ± 5.1 | 4.5 ± 0.26 | 4.94 ± 3.2 | 55 ± 13 | 39.2 ± 9.2 | 19.5 ± 5 | 5.45 ± 2 |  |  |  |  |  |
| CCNC(=O)c1noc(-c2cc(C(C)C)c(O)cc2O)c1-c1ccc(CN2CCOCC2)cc1 [NVPAUY922] | 67.6 ± 2.1 | 31.7 ± 5.1 | 30 ± 6 |  | 71.4 ± 5.7 | 16 ± 4.2 | 9.36 ± 1.3 |  | 89.8 ± 44 | 27.1 ± 1.1 | 25.7 ± 6.9 |  | 78.6 ± 19 | 30 ± 8.8 | 18.5 ± 5.7 |  | 81.1 ± 1.5 | 48 ± 3.7 | 37.9 ± 5.3 |  | 112 ± 16 | 111 ± 40 | 107 ± 6.7 | 116 ± 31 | 96.7 ± 24 |
| CC1(C)CCC(c2ccc(Cl)cc2)=C(CN2CCN(c3ccc(C(=O)NS(=O)(=O)c4ccc(N[C@H](CCN5CCOCC5)CSc5ccccc5)c(S(=O)(=O)C(F)(F)F)c4)cc3)CC2)C1 [Navitoclax] | 96.9 ± 14 | 102 ± 12 | 76.6 ± 12 | 47.9 ± 1.3 | 93.9 ± 27 | 108 ± 6.7 | 93.9 ± 13 | 52.5 ± 7.4 | 86.5 ± 10 | 95.5 ± 39 | 105 ± 11 | 81.5 ± 24 | 74.6 ± 24 | 117 ± 33 | 50 ± 18 | 75.1 ± 14 | 85.4 ± 11 | 90.6 ± 3.6 | 94.8 ± 3.5 | 78 ± 12 |  |  |  |  |  |
| CN1C(=O)C(Cc2c[nH]c3ccccc23)NC1=S (stereo not given) [Necrostatin1] | 110 ± 12 | 92.5 ± 3.2 | 105 ± 2.8 | 91.2 ± 2.3 | 97.3 ± 20 | 79.2 ± 7.1 | 97.7 ± 25 | 64.1 ± 3 | 76.9 ± 14 | 71.3 ± 29 | 78.3 ± 31 | 84.6 ± 35 | 89.8 ± 11 | 92.2 ± 8.2 | 60.4 ± 1.4 | 68.6 ± 3.7 | 110 ± 16 | 63.8 ± 8.2 | 82.9 ± 0.53 | 114 ± 14 |  |  |  |  |  |
| COc1nc(N)nc2c1ncn2[C@@H]1O[C@H](CO)[C@@H](O)[C@@H]1O [Nelarabine] | 113 ± 3.4 | 96.7 ± 16 | 99 ± 21 | 109 ± 4.1 | 82 ± 19 | 95.5 ± 4.6 | 104 ± 23 | 72 ± 26 | 85.5 ± 33 | 74.6 ± 23 | 81.7 ± 5.5 | 109 ± 7.7 | 100 ± 31 | 85.8 ± 2.9 | 101 ± 6.9 | 91.7 ± 4.2 | 90.5 ± 4.3 | 85.5 ± 1.7 | 94.9 ± 26 | 98 ± 15 |  |  |  |  |  |
| CCOc1cc2ncc(C#N)c(Nc3ccc(OCc4ccccn4)c(Cl)c3)c2cc1NC(=O)/C=C/CN(C)C [Neratinib] | 85 ± 2.7 | 101 ± 7 | 95.9 ± 12 | 50 ± 3.4 | 98.3 ± 10 | 74.1 ± 4 | 91.24 ± 0.32 | 46.6 ± 1.1 | 100 ± 32 | 73.9 ± 1.6 | 70.7 ± 6 | 47.4 ± 0.48 | 92.7 ± 6.7 | 70.3 ± 1.5 | 27.1 ± 5.3 | 17.2 ± 0.58 | 86.8 ± 7.5 | 99.2 ± 16 | 79.7 ± 16 | 51.4 ± 2.7 |  |  |  |  |  |
| O=C(Nc1ccc([N+](=O)[O-])cc1Cl)c1cc(Cl)ccc1O [Niclosamide] | 92.2 ± 13 | 92.62 ± 0.79 | 113 ± 7.2 | 46.5 ± 11 | 115 ± 21 | 119 ± 34 | 97.4 ± 20 | 37.7 ± 14 | 88.4 ± 14 | 104 ± 61 | 102 ± 80 | 50.2 ± 10 | 108 ± 7.6 | 83.6 ± 3.2 | 82.1 ± 19 | 59.8 ± 2.1 | 91.7 ± 20 | 109 ± 7 | 98.5 ± 3.8 | 55 ± 12 |  |  |  |  |  |
| Cc1cn(-c2cc(NC(=O)c3ccc(C)c(Nc4nccc(-c5cccnc5)n4)c3)cc(C(F)(F)F)c2)cn1 [Nilotinib] | 93.4 ± 2.5 | 102 ± 16 | 98.8 ± 11 | 93.7 ± 30 | 80.9 ± 6.4 | 118 ± 19 | 88.1 ± 1.5 | 63.5 ± 28 | 75.2 ± 1.9 | 94.4 ± 29 | 107 ± 2.8 | 35.1 ± 20 | 79.5 ± 24 | 88.7 ± 0.9 | 98.3 ± 25 | 13.8 ± 12 | 99.6 ± 18 | 87.1 ± 14 | 94.2 ± 22 | 63.1 ± 6.3 |  |  |  |  |  |
| O=[N+]([O-])c1ccc(O)c2ncccc12 [Nitroxoline] | 86.5 ± 3.6 | 88.83 ± 0.36 | 107 ± 14 | 45.9 ± 0.87 | 54.2 ± 9.2 | 103 ± 22 | 88.3 ± 10 | 37.7 ± 9.7 | 86.7 ± 6.9 | 94.1 ± 17 | 97.4 ± 51 | 33.4 ± 19 | 82.9 ± 23 | 91.1 ± 3.5 | 43.59 ± 0.14 | 40 ± 6.6 | 93.1 ± 19 | 87.9 ± 43 | 114 ± 13 | 56.1 ± 6.1 |  |  |  |  |  |
